{"source": "patent US10952433B2", "about": "“Solutions for enhancing the effectiveness of insecticides and fungicides on living plants and related methods” (priority 2015, dated 2021)", "key": {"Gypsy Moth Catepillar": {"system": "Gypsy Moth Catepillar", "test": "Gypsy moth caterpillar damage to white oak seedlings after hand spray (Table 5)", "assay_type": "in vivo, gypsy moth (on white oak seedlings)", "protocol": "The particular solutions tested were applied to a stem of the white oak seedling using a low volume hand spray and spraying 20 milliliters per seedling. A total of 20 seedlings were tested. […] At permethrin concentration of 50 ppm, the damage after one month was 30% and with 100 ppm used alone, the damage was 0. When buffered amine oxide system No. 3 was employed in concentrations of 400:1 with 10 ppm of the insecticide, the gypsy moth caterpillar damage was 10% and when a concentration of 200:1 was employed with 10 ppm insecticide, the damage was 0."}, "[1]": {"system": "lepidopteran larvae: cabbage loopers (Trichoplusia ni) and beet armyworms (Spodoptera exigua)", "assay_type": "in vivo", "details": "plants", "summary_of_the_method": "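Romaine lettuce plants 2-3 inches tall were sprayed with 10 mL of insecticide (ppm) with buffer, amine oxide or buffered amine oxide at 200:1, then infested with 15 T. ni and 15 S. exigua larvae (5th-6th instar) per container. Leaf surface damage scored visually in 5% increments after 24 h.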"}, "[2]": {"system": "lepidopteran larvae: cabbage loopers (Trichoplusia ni) and beet armyworms (Spodoptera exigua)", "assay_type": "in vivo", "details": "leaf discs", "summary_of_the_method": "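Romaine lettuce leaf discs (⅝ inch) dipped about one second in treatment solution and infested with four cabbage loopers and four beet armyworms (3rd-4th instar) per container. Held dark at 15 °C, 80% RH; percent disc-area damage scored visually in 5% increments at 24, 48 and 72 h.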"}, "[3]": {"details": "insecticide + CO3 buffer 200:1, no amine oxide, PPM: Chlorantranilopril 60, Acephate 70, Methoxyfenozide 100, Spinosad 30, Permethrin 10, Indoxacarb 50"}, "[4]": {"details": "insecticide + PO4 buffer 200:1, no amine oxide, PPM: Chlorantranilopril 60, Acephate 70, Methoxyfenozide 100, Spinosad 30, Permethrin 10, Indoxacarb 50"}, "[5]": {"details": "insecticide + amine oxide 12, no buffer, 200:1, PPM: Chlorantranilopril 60, Acephate 70, Methoxyfenozide 100, Spinosad 30, Permethrin 10, Indoxacarb 50"}, "[6]": {"details": "insecticide + amine oxide 1218, no buffer, 200:1, PPM: Chlorantranilopril 60, Acephate 70, Methoxyfenozide 100, Spinosad 30, Permethrin 10, Indoxacarb 50"}, "[7]": {"details": "insecticide + buffered amine oxide system CO3, 12, 200:1, PPM: Chlorantranilopril 60, Acephate 70, Methoxyfenozide 100, Spinosad 30, Permethrin 10, Indoxacarb 50"}, "[8]": {"details": "insecticide + buffered amine oxide system CO3, 1218, 200:1, PPM: Chlorantranilopril 60, Acephate 70, Methoxyfenozide 100, Spinosad 30, Permethrin 10, Indoxacarb 50"}, "[9]": {"details": "insecticide + buffered amine oxide system PO4, 12, 200:1, PPM: Chlorantranilopril 60, Acephate 70, Methoxyfenozide 100, Spinosad 30, Permethrin 10, Indoxacarb 50"}, "[10]": {"details": "insecticide + buffered amine oxide system PO4, 1218, 200:1, PPM: Chlorantranilopril 60, Acephate 70, Methoxyfenozide 100, Spinosad 30, Permethrin 10, Indoxacarb 50"}, "[11]": {"details": "insecticide alone, highest, PPM: Chlorantranilopril 120, Acephate 140, Methoxyfenozide 200, Spinosad 60, Permethrin 20, Indoxacarb 100"}, "[12]": {"details": "insecticide alone, increased, PPM: Chlorantranilopril 90, Acephate 105, Methoxyfenozide 150, Spinosad 45, Permethrin 15, Indoxacarb 75"}, "[13]": {"details": "insecticide alone, PPM: Chlorantranilopril 60, Acephate 70, Methoxyfenozide 100, Spinosad 30, Permethrin 10, Indoxacarb 50"}}, "note": "Where two headings read alike, the source gives them in different places.", "data": [{"smiles": "CC1(C)C(C=C(Cl)Cl)C1C(=O)OCc1cccc(Oc2ccccc2)c1", "note": "(stereo not drawn) [Permethrin]", "values": [{"measurement": "Percent Gypsy Moth Catepillar Damage to White Oak 1 Month After Application", "setting": "Gypsy Moth Catepillar; Permethrin 10 PPM + buffered amine oxide system 3, amine oxide 12, 200:1", "result": 0, "unit": "%"}, {"measurement": "Percent Gypsy Moth Catepillar Damage to White Oak 1 Month After Application", "setting": "Gypsy Moth Catepillar; Permethrin 10 PPM + buffered amine oxide system 3, amine oxide 12, 400:1", "result": 10, "unit": "%"}, {"measurement": "Percent Gypsy Moth Catepillar Damage to White Oak 1 Month After Application", "setting": "Gypsy Moth Catepillar; Permethrin 10 PPM + buffered amine oxide system 4, amine oxide 12, 200:1", "result": 0, "unit": "%"}, {"measurement": "Percent Gypsy Moth Catepillar Damage to White Oak 1 Month After Application", "setting": "Gypsy Moth Catepillar; Permethrin 10 PPM + buffered amine oxide system 4, amine oxide 12, 400:1", "result": 10, "unit": "%"}, {"measurement": "Percent Gypsy Moth Catepillar Damage to White Oak 1 Month After Application", "setting": "Gypsy Moth Catepillar; Permethrin 10 PPM alone", "result": 80, "unit": "%"}, {"measurement": "Percent Gypsy Moth Catepillar Damage to White Oak 1 Month After Application", "setting": "Gypsy Moth Catepillar; Permethrin 50 PPM alone", "result": 30, "unit": "%"}, {"measurement": "Percent Gypsy Moth Catepillar Damage to White Oak 1 Month After Application", "setting": "Gypsy Moth Catepillar; Permethrin 100 PPM alone", "result": 0, "unit": "%"}, {"measurement": "Percent Lepidopteran Damage to Romaine Lettuce 24 hr", "setting": "[1]; [3]", "result": 80.5, "unit": "%"}, {"measurement": "Percent Lepidopteran Damage to Romaine Lettuce 24 hr", "setting": "[1]; [4]", "result": 83.0, "unit": "%"}, {"measurement": "Percent Lepidopteran Damage to Romaine Lettuce 24 hr", "setting": "[1]; [5]", "result": 77.5, "unit": "%"}, {"measurement": "Percent Lepidopteran Damage to Romaine Lettuce 24 hr", "setting": "[1]; [6]", "result": 72.0, "unit": "%"}, {"measurement": "Percent Lepidopteran Damage to Romaine Lettuce 24 hr", "setting": "[1]; [7]", "result": 22.5, "unit": "%"}, {"measurement": "Percent Lepidopteran Damage to Romaine Lettuce 24 hr", "setting": "[1]; [8]", "result": 28.0, "unit": "%"}, {"measurement": "Percent Lepidopteran Damage to Romaine Lettuce 24 hr", "setting": "[1]; [9]", "result": 24.0, "unit": "%"}, {"measurement": "Percent Lepidopteran Damage to Romaine Lettuce 24 hr", "setting": "[1]; [10]", "result": 21.0, "unit": "%"}, {"measurement": "Percent Lepidopteran Damage to Romaine Lettuce 24 hr", "setting": "[1]; [11]", "result": 90.0, "unit": "%"}, {"measurement": "Percent Lepidopteran Damage to Romaine Lettuce 24 hr", "setting": "[1]; [12]", "result": 78.0, "unit": "%"}, {"measurement": "Percent Lepidopteran Damage to Romaine Lettuce 24 hr", "setting": "[1]; [13]", "result": 77.0, "unit": "%"}, {"measurement": "Percent Lepidopteran Damage to Romaine Lettuce 24 hr", "setting": "[2]; [3]", "result": 53.5, "unit": "%"}, {"measurement": "Percent Lepidopteran Damage to Romaine Lettuce 24 hr", "setting": "[2]; [4]", "result": 28.5, "unit": "%"}, {"measurement": "Percent Lepidopteran Damage to Romaine Lettuce 24 hr", "setting": "[2]; [5]", "result": 17.0, "unit": "%"}, {"measurement": "Percent Lepidopteran Damage to Romaine Lettuce 24 hr", "setting": "[2]; [6]", "result": 24.0, "unit": "%"}, {"measurement": "Percent Lepidopteran Damage to Romaine Lettuce 24 hr", "setting": "[2]; [7]", "result": 23.5, "unit": "%"}, {"measurement": "Percent Lepidopteran Damage to Romaine Lettuce 24 hr", "setting": "[2]; [8]", "result": 2.0, "unit": "%"}, {"measurement": "Percent Lepidopteran Damage to Romaine Lettuce 24 hr", "setting": "[2]; [9]", "result": 3.0, "unit": "%"}, {"measurement": "Percent Lepidopteran Damage to Romaine Lettuce 24 hr", "setting": "[2]; [10]", "result": 1.5, "unit": "%"}, {"measurement": "Percent Lepidopteran Damage to Romaine Lettuce 24 hr", "setting": "[2]; [11]", "result": 1.5, "unit": "%"}, {"measurement": "Percent Lepidopteran Damage to Romaine Lettuce 24 hr", "setting": "[2]; [12]", "result": 0.0, "unit": "%"}, {"measurement": "Percent Lepidopteran Damage to Romaine Lettuce 24 hr", "setting": "[2]; [13]", "result": 85.5, "unit": "%"}, {"measurement": "Percent Lepidopteran Damage to Romaine Lettuce 48 hr", "setting": "[2]; [3]", "result": 97.5, "unit": "%"}, {"measurement": "Percent Lepidopteran Damage to Romaine Lettuce 48 hr", "setting": "[2]; [4]", "result": 79.0, "unit": "%"}, {"measurement": "Percent Lepidopteran Damage to Romaine Lettuce 48 hr", "setting": "[2]; [5]", "result": 60.0, "unit": "%"}, {"measurement": "Percent Lepidopteran Damage to Romaine Lettuce 48 hr", "setting": "[2]; [6]", "result": 95.0, "unit": "%"}, {"measurement": "Percent Lepidopteran Damage to Romaine Lettuce 48 hr", "setting": "[2]; [7]", "result": 67.0, "unit": "%"}, {"measurement": "Percent Lepidopteran Damage to Romaine Lettuce 48 hr", "setting": "[2]; [8]", "result": 4.5, "unit": "%"}, {"measurement": "Percent Lepidopteran Damage to Romaine Lettuce 48 hr", "setting": "[2]; [9]", "result": 10.5, "unit": "%"}, {"measurement": "Percent Lepidopteran Damage to Romaine Lettuce 48 hr", "setting": "[2]; [10]", "result": 3.0, "unit": "%"}, {"measurement": "Percent Lepidopteran Damage to Romaine Lettuce 48 hr", "setting": "[2]; [11]", "result": 4.0, "unit": "%"}, {"measurement": "Percent Lepidopteran Damage to Romaine Lettuce 48 hr", "setting": "[2]; [12]", "result": 0.5, "unit": "%"}, {"measurement": "Percent Lepidopteran Damage to Romaine Lettuce 48 hr", "setting": "[2]; [13]", "result": 100.0, "unit": "%"}, {"measurement": "Percent Lepidopteran Damage to Romaine Lettuce 72 hr", "setting": "[2]; [3]", "result": 100.0, "unit": "%"}, {"measurement": "Percent Lepidopteran Damage to Romaine Lettuce 72 hr", "setting": "[2]; [4]", "result": 100.0, "unit": "%"}, {"measurement": "Percent Lepidopteran Damage to Romaine Lettuce 72 hr", "setting": "[2]; [5]", "result": 89.0, "unit": "%"}, {"measurement": "Percent Lepidopteran Damage to Romaine Lettuce 72 hr", "setting": "[2]; [6]", "result": 100.0, "unit": "%"}, {"measurement": "Percent Lepidopteran Damage to Romaine Lettuce 72 hr", "setting": "[2]; [7]", "result": 91.0, "unit": "%"}, {"measurement": "Percent Lepidopteran Damage to Romaine Lettuce 72 hr", "setting": "[2]; [8]", "result": 5.0, "unit": "%"}, {"measurement": "Percent Lepidopteran Damage to Romaine Lettuce 72 hr", "setting": "[2]; [9]", "result": 21.0, "unit": "%"}, {"measurement": "Percent Lepidopteran Damage to Romaine Lettuce 72 hr", "setting": "[2]; [10]", "result": 3.0, "unit": "%"}, {"measurement": "Percent Lepidopteran Damage to Romaine Lettuce 72 hr", "setting": "[2]; [11]", "result": 4.5, "unit": "%"}, {"measurement": "Percent Lepidopteran Damage to Romaine Lettuce 72 hr", "setting": "[2]; [12]", "result": 0.5, "unit": "%"}, {"measurement": "Percent Lepidopteran Damage to Romaine Lettuce 72 hr", "setting": "[2]; [13]", "result": 100.0, "unit": "%"}]}]}
